Measurements taken from US8519149B2, “Tricyclic compounds as mPGES-1 inhibitors” (Glenmark Pharmaceuticals S.A., priority 2010, dated 2013).

Target: T1, Recombinant human mPGES-1 (Homo sapiens, UniProt O14684)
T1 sequence (O14684 1-152): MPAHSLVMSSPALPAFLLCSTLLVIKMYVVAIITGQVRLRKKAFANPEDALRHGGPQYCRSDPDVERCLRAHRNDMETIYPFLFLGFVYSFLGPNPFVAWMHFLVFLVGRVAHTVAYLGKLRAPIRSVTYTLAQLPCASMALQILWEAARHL
Test: In-vitro mPGES-1 enzyme inhibition assay (PGE2 formation from PGH2, HTRF detection)
Assay type: biochemical
Conditions: for inhibition at 1 µM: 1 μM test compound, read-out: Percentage inhibition at 1 μM; for inhibition at 1 µM / inhibition at 10 µM: recombinant human mPGES-1 microsomal fraction; for inhibition at 10 µM: 10 μM test compound, read-out: Percentage inhibition at 10 μM; for IC50: class symbols, selected examples
From the text: In-Vitro Protocol for Screening of mPGES-1 Inhibitors: mPGES-1 (microsomal prostaglandin E synthase-1) is a microsomal enzyme that converts endoperoxide substrate PGH2 (prostaglandin H2) to product PGE2 (prostaglandin E2) by isomerization in the presence of reduced glutathione (GSH). mPGES-1 inhibitors were screened by assessing their ability to inhibit formation of PGE2 from PGH2 in presence of mPGES-1 using anti-PGE2 antibody based detection method. […] Assay was set up using crude microsomal fractions at protein concentration of 40-60 μg/mL. […] Final concentration of DMSO in reaction was 0.5% (v/v). Negative controls comprised of all assay reagents except the enzyme. Positive controls comprised of enzyme reaction in the absence of any inhibitor. […] Reaction was stopped by addition of Stannous chloride (11 mg/ml) and PGE2 levels were measured ([…] et al. […] Inhibition of mPGES-1 enzyme activity was measured using percent of reaction occurring in the positive control. Concentration response curves were plotted using percent inhibition of maximum enzyme reaction. IC50 value was calculated from concentration response curve by nonlinear regression analysis using GraphPad PRISM software.

Row | SMILES | inhibition at 1 µM | inhibition at 10 µM | IC50
1 | Cc1cc2c(o1)c(C(=O)NC(C)C(C)(C)C)cc1nc(Nc3c(Cl)cncc3Cl)[nH]c12 (stereo not drawn) [Example-23, 2-[(3,5-Dichloropyridin-4-yl)amino]-N-(3,3-dimethylbutan-2-yl)-7-methyl-1H-furo[3,2-e]benzimidazole-5-carboxamide] | 94% | 97.1% | < 50 nM
2 | CC1(C)Cc2c(c(C(=O)Nc3ccc(F)cc3)cc3nc(Nc4c(Cl)cncc4Cl)[nH]c23)O1 [Example-24, 2-[(3,5-Dichloropyridin-4-yl)amino]-N-(4-fluorophenyl)-7,7-dimethyl-7,8-dihydro-1H-furo[3,2-e]benzimidazole-5-carboxamide] | 95.3% | 95% | < 50 nM
3 | CC(C)(C)CC(C)(C)NC(=O)c1cc2nc(Nc3c(Cl)cncc3Cl)[nH]c2c2c1OC(C)(C)C2 [Example-25, 2-[(3,5-Dichloropyridin-4-yl)amino]-7,7-dimethyl-N-(2,4,4-trimethylpentan-2-yl)-7,8-dihydro-1H-furo[3,2-e]benzimidazole-5-carboxamide] | 92% | 98.2% | < 50 nM
4 | CC1(C)Cc2c(c(C(=O)NCc3ccc(F)cc3)cc3nc(Nc4c(Cl)cncc4Cl)[nH]c23)O1 [Example-26, 2-[(3,5-Dichloropyridin-4-yl)amino]-N-(4-fluorobenzyl)-7,7-dimethyl-7,8-dihydro-1H-furo[3,2-e]benzimidazole-5-carboxamide] | 90.2% | 97.8% | < 50 nM
5 | CC1(C)Cc2c(c(C(=O)NCC3CCCCC3)cc3nc(Nc4c(Cl)cncc4Cl)[nH]c23)O1 [Example-27, N-(Cyclohexylmethyl)-2-[(3,5-dichloropyridin-4-yl)amino]-7,7-dimethyl-7,8-dihydro-1H-furo[3,2-e]benzimidazole-5-carboxamide] | 93.7% | 93% | –
6 | CC1(C)Cc2c(c(C(=O)NC3CCCCC3)cc3nc(Nc4c(Cl)cncc4Cl)sc23)O1 [Example-28, N-Cyclohexyl-2-[(3,5-dichloropyridin-4-yl)amino]-7,7-dimethyl-7,8-dihydrofuro[2,3-g][1,3]benzothiazole-5-carboxamide] | 87.3% | 98.9% | > 100 nM
7 | CC1(C)Cc2c(c(C(=O)Nc3ccccc3F)cc3nc(Nc4c(Cl)cccc4Cl)[nH]c23)O1 [Example-30, 2-[(2,6-Dichlorophenyl)amino]-N-(2-fluorophenyl)-7,7-dimethyl-7,8-dihydro-1H-furo[3,2-e]benzimidazole-5-carboxamide] | 93.8% | 92.5% | < 50 nM
8 | Cc1cc2c(o1)c(C(=O)Nc1ccc(C(F)(F)F)cc1)cc1nc(Nc3c(Cl)cncc3Cl)[nH]c12 [Example-32, 2-[(3,5-Dichloropyridin-4-yl)amino]-7-methyl-N-[4-(trifluoromethyl)phenyl]-1H-furo[3,2-e]benzimidazole-5-carboxamide] | 99% | 100% | –
9 | Cc1cc2c(o1)c(C(=O)NC(C)(C)CC(C)(C)C)cc1nc(Nc3c(Cl)cncc3Cl)[nH]c12 [Example-34, 2-[(3,5-Dichloropyridin-4-yl)amino]-7-methyl-N-(2,4,4-trimethylpentan-2-yl)-1H-furo[3,2-e]benzimidazole-5-carboxamide] | 95.5% | 98.7% | < 50 nM
10 | Cc1cc2c(o1)c(C(=O)NCc1ccc(F)cc1)cc1nc(Nc3c(Cl)cccc3Cl)[nH]c12 [Example-35, 2-[(2,6-Dichlorophenyl)amino]-N-(4-fluorobenzyl)-7-methyl-1H-furo[3,2-e]benzimidazole-5-carboxamide] | 89.3% | 99.1% | –
11 | Cc1cc2c(o1)c(C(=O)Nc1ccc(F)cc1)cc1nc(Nc3c(Cl)cncc3Cl)[nH]c12 [Example-36, 2-[(3,5-Dichloropyridin-4-yl)amino]-N-(4-fluorophenyl)-7-methyl-1H-furo[3,2-e]benzimidazole-5-carboxamide] | 92.4% | 99.3% | > 100 nM
